{"source": "paper PMC9323955", "about": "“Synthesis and Evaluation of Small Molecule Drug Conjugates Harnessing Thioester-Linked Maytansinoids” (Pharmaceutics, 2022)", "key": {"[1]": {"assay": "PS SPR binding assay (Biacore T200, L1 chip)", "settings": "DOPC/DOPS (3:1, v/v) liposomes on L1 chip, 25 °C", "procedure": "Phospholipids, 1,2-dioleoyl-sn-glycero-3-phosphocholine (DOPC) and 1,2-dioleoyl-sn-glycero-3-[phosphate-L-serine] (DOPS) were obtained as chloroform solutions from Avanti Polar Lipids (Alabaster, AL, USA). These stock solutions were mixed in the specified proportions. A 0.4 mL aliquot of the lipid solution at a 10 mg/mL concentration was added to a round bottom flask and evaporated under a stream of N2 to provide a thin lipid film. The lipid films were rehydrated in PBS buffer for at least 1 h at room temperature. The resulting suspension was extruded through a 100 nm polycarbonate filter using an Avanti MiniExtruder according to the manufacturer’s instructions. Zeta potential (ZP) and liposome size distribution were recorded by dynamic light scattering (DLS) and microelectrophoresis using a Zetasizer Nano ZS instrument. The binding kinetics between conjugates and liposomes were recorded at 25 °C using a Biacore T200 biosensor equipped with an L1 sensor chip (GE Healthcare, Chicago, IL, USA). The new sensor chip was pretreated with running buffer (5% DMSO in phosphate buffered saline (PBS) at a pH of 7.4) and two consecutive 30 s pulses of 2:3 v/v 50 mM HCl/isopropanol at a flow rate of 30 μL/min. New liposome capture plates were prepared for each binding cycle. In PBS buffer, liposomes are diluted to 0.5–1 mM and captured to saturation in isolated flow cells at 2–5 μL/min (30–150 s). […]"}, "[2]": {"tested_on": "HCC1806 triple-negative breast cancer cells", "assay": "MTS cell viability assay (72 h)", "format": "cell-based, human", "settings": "HCC1806, conjugate vs DM1/DM4", "procedure": "HCC1806 cells were grown in RPMI 1640 medium, and MTS assays were performed to check cell viability. Cells (2500–3000 cells/well) were grown in flat-bottomed 96-well plates for 24 h, and then serial dilutions of the compound were added, and cells were allowed to incubate for a further 72 h. At the end of the 72-h incubation period, the medium was removed, and 100 μL of a solution including a mixture of MTS and PMS was added. The cells were incubated for 1.5 h at 37 °C in a humidified incubator with 5% CO2 to allow viable cells to convert tetrazolium salts to formazan. Conversion to formazan was measured by absorbance (490 nm) using a BioTek PowerWave-X absorbance microplate meter. The data collected were normalized using a DMSO-treated control (100% viability) and a background control (0% viability) to verify growth inhibition."}, "[3]": {"tested_on": "sorafenib-resistant hepatocellular carcinoma", "assay": "Oncogene-induced, sorafenib-resistant HCC mouse model", "format": "in vivo", "procedure": "Cancer cells suspended in RPMI 1640 medium (11835-030, Thermo Fisher Scientific, Waltham, MA, USA) were mixed with Matrigel™ (356237, BD Biosciences, Franklin Lakes, NJ, USA) in a 1:1 ratio. Human triple-negative breast cancer HCC1806 (1 × 10^6 cells) cells were inoculated subcutaneously into the left flank of 6-week-old female nude mice (BioLASCO Taiwan, Taipei, Taiwan) using a 1 mL syringe with a 24G needle (AN-2425R, Terumo Medical Corp., Tokyo, Japan). Tumor dimensions were measured twice weekly using electronic calipers (FOW54-200-777, PRO-MAX), and the volume of tumor grown subcutaneously (mm^3) was calculated by the formula Volume = (length × width^2)/2. A combination of 10% DMA/20% Cremophor EL/70% 5% dextrose injection (D5W) was formulated to treat HCC1806 xenograft tumors. Mice with HCC1806 tumors were grouped and administered the indicated dosing regimen of 1 mg/kg for the conjugate and 0.3 mg/kg for the cytotoxic payloads DM1 and DM4 twice-weekly (day 1 and day 4) for 2 weeks when the mean tumor volume was approximately 200–250 mm^3 or 850–900 mm^3 (large tumors). The conjugate dose of 2 mg/kg was administered weekly for the large tumor study. The body weight and tumor volume of mice were measured twice weekly. In addition, a previously reported oncogene-induced, sorafenib-resistant HCC mouse model was used in the current study to examine the antitumor activities of synthesized compounds. Briefly, plasmids including transposase (pCMV(CAT)T7-SB100), human Akt1, and luciferase (pKT2/CLP-AKT-2A-OVA-HBc-HBs-LUC) and the N-Ras V12 mutant (pT/Caggs-NRASV12) were hydrodynamically injected (HDI) and the liver was monitored for the appearance of HCC. HCC mice with a total flux of more than 1 × 10^9 photons/s from IVIS imaging were used as treatment conjugates. The indicated conjugate was administered intravenously at 1 mg/kg 3 times per week over 2 weeks. IVIS imaging was repeatedly performed to follow tumor progression, and tumor tissue from treated HCC mice was collected for histological examination and RNA extraction after administration.\nParaffin-embedded liver/tumor tissue sections were de-paraffined, re-hydrated, and then subjected to heat-induced antigen retrieval, followed by incubation with primary Abs. The primary antibodies used to detect Ki-67 and CD8α were SP6 (Abcam, Cambridge, UK) and D4W2Z (Cell Signaling Technology, Danvers, MA, USA), respectively. ImmPRESS anti-rat Ig, ImmPRESS anti-rabbit Ig, polymer detection kit, DAB peroxidase substrate kit (Vector laboratories, Burlingame, CA, USA), and liquid permanent red substrate (Dako, Glostrup, Denmark) and Hematoxylin Gill II (Leica, Wetzlar, Germany) were used for detection and visualization. Images were taken by NHRI’s Pathology Core Laboratory using an automated digital slide scanner Pannoramic MIDI with a Plan-Apochromat 20×/0.8 objective (3D HISTECH, Budapest, Hungary).\nTotal RNA was extracted from conjugate-treated or vehicle-treated HCC mouse tumor tissue using the RNA-easy kit (QIAGEN, Hilden, Germany). The concentration (absorbance at 260 nm) and purity (A260/280 and A260/230 ratios) of the extracted RNA was measured spectrophotometrically; RNA integrity was further determined using the 2100 Bioanalyzer System (Agilent RNA was further determined for RNA integrity using a 2100 Bioanalyzer System (Agilent Technologies, Santa Clara, CA, USA). RNA was hybridized to the barcode probe provided in the nCounter Mouse Pan-Cancer Immunoassay Kit (NanoString Technologies, Seattle, WA, USA) and then used to measure mRNA expression of 770 genes associated with the immune response. Nanostring nSolver 4.0 and nCounter Advanced Analysis 2.0 software (NanoString Technologies) was used for data processing, immune cell analysis, and pathway scoring according to the developer’s instructions."}, "[4]": {"settings": "Nanostring mRNA analysis vs vehicle"}, "[5]": {"settings": "Nanostring pathway scoring vs vehicle"}}}
{"smiles": "COc1cc2cc(c1Cl)N(C)C(=O)CC(OC(=O)C(C)N(C)C(=O)CCSC(=O)c1ccc(CN(CCOCCOCCNC(=O)c3ccc(CN(CCCCOc4cc(CN(Cc5ccccn5)Cc5ccccn5)cc(CN(Cc5ccccn5)Cc5ccccn5)c4)C(=O)C4(c5ccc(Cl)cc5)CCCCC4)cc3)C(=O)C3(c4ccc(Cl)cc4)CCCCC3)cc1)C1(C)OC1C(C)C1CC(O)(NC(=O)O1)C(OC)C=CC=C(C)C2.O=[N+]([O-])[O-].O=[N+]([O-])[O-].O=[N+]([O-])[O-].O=[N+]([O-])[O-].[Zn+2].[Zn+2]", "note": "(stereo not drawn) [Zn8_DM1]", "values": [{"measurement": "association with PS-coated liposomes (SPR)", "setting": "[1]", "result": "still allowed recognition"}, {"measurement": "fold attenuation in cytotoxicity relative to parent payload", "setting": "[2]", "result": "2.5–6 fold"}, {"measurement": "anti-HCC tumor growth (flux of luciferase activity)", "setting": "[3]; 1 mg/kg i.v. 3 times a week for 2 weeks", "result": "potent anti-HCC tumor growth"}, {"measurement": "CD8+ T-cell infiltration in tumors", "setting": "[3]; CD8α immunohistochemistry", "result": "significant increase"}, {"measurement": "CXCL9 gene expression in tumor tissue", "setting": "[3]; [4]", "result": "significant upregulation"}, {"measurement": "PD-L1 gene expression in tumor tissue", "setting": "[3]; [4]", "result": "elevated PD-L1 gene expression"}, {"measurement": "STAT1 gene expression in tumor tissue", "setting": "[3]; [4]", "result": "elevated"}, {"measurement": "NK cell function score in TME", "setting": "[3]; [5]", "result": "significant improvement"}, {"measurement": "T-cell function score in TME", "setting": "[3]; [5]", "result": "significant improvement"}, {"measurement": "interferon score in TME", "setting": "[3]; [5]", "result": "significant improvement"}, {"measurement": "Ki-67 staining of tumor samples", "setting": "[3]; immunohistochemistry, treated tumor", "result": "marked reduction in Ki-67 staining"}, {"measurement": "liver tumor burden vs vehicle", "setting": "[3]; livers harvested a week post last dose", "result": "less tumor burden"}]}
